From US9468670B2, “Melatonin-based treatment and diagnosis of bile duct disease” (Texas A&M University System, priority 2011, dated 2016)
Entries after “also recorded” stand apart in the source; their conditions may differ.

Tests used:
Mz-ChA-1 cells = assay: Mz-ChA-1 cholangiocarcinoma xenograft in nude mice: tumor size and immunohistochemistry of tumor sections; type: in vivo, nude (nu/nu) mice
Protocol: AANAT expression was assessed in liver biopsy samples from CCA patients and controls by immunohistochemistry, and in non-malignant cholangiocytes and intra- and extrahepatic CCA lines by qPCR and immunoblots. Melatonin secretion was assessed in the supernatant of normal and CCA lines, and serum and bile from controls and CCA patients by EIA. In the CCA line Mz-ChA-1 stably overexpressing AANAT, the expression of AANAT, melatonin secretion, and CCA proliferation were studied after 48 hr of incubation. In in vivo studies, Mz-ChA-1 cells were injected Sub Q into the hind flanks of nu/nu mice. Tumors were allowed to develop and volumes were measured for 41 days during treatment with saline or melatonin (4 mg/kg BW, IP 3×wk). Tumors were analyzed for AANAT, PCNA, CK-19 and Bax by qPCR and immunoblots. Tumor tissue sections were analyzed for TUNEL, and staining for AANAT, PCNA and CK-19.
Experiments were performed to evaluate the in vivo effect of melatonin on the growth of cholangiocarcinoma cell lines implanted in the flanks of athymic mice (Francis H et al., 2009). Male BALB/c 6-wk-old nude (nu/nu) mice (Taconic Farms. Hudson, N.Y.) were kept in a temperature-controlled environment (20-22° C.) with 12-hr light-dark cycles, fed ad libitum standard mouse chow, and with free access to drinking water. Mz-ChA-1 cells (5×10^6) were suspended in 0.2 ml of extracellular matrix gel and injected subcutaneously in the rear flanks of the nude mice. After the establishment of the tumor (one week with a tumor size of ˜5 mm^3) mice (n=4) were treated with vehicle (5% ethanol in water) or melatonin (4 mg/kg BW, dissolved in 5% aqueous ethanol solution) (Sewerynek et al., 1995) by IP injections three times a week. Tumor variables were measured three times a week by an electronic caliper, and volume was determined as follows: tumor volume (mm^3)=0.5×[length (mm)×width (mm)×height (mm)]. The measurements started from the first week when the tumor mass was established. After 43 days of treatment, were anesthetized with sodium pentobarbital (50 mg/kg BW IP) and tumor tissues were harvested from the flanks of the mice. Heart, liver, and kidney tissues were collected for evaluation of organ damage by H&E staining of paraffin-embedded sections ([…]). All experiments were conducted under the guidelines of the Scott & White and Texas A&M HSC IACUC Committee. Tumors were allowed to grow until maximum allowable tumor burden was reached as set forth by the Scott & White and Texas A&M HSC IACUC tumor burden policy. Tumor tissues were fixed for 4 hr in 10% buffered formalin and embedded in low-temperature fusion paraffin. Subsequently, sections (4-5 mm) were stained: (i) with H & E for evaluation of necrosis (Francis et al., 2009); and (ii) for PCNA (a marker of proliferation) (Francis et al., 2009), cleaved caspase-3 (for measurement of apoptosis) (Arai et al., 2005), AANAT, ASMT, melatonin, MT1 and MT2 by immunohistochemistry (Francis et al., 2009). Negative controls were obtained by staining the tumor sections with non-immune serum with the omission of the primary antibody. Semiquantitative analysis for these markers was evaluated by image-analysis software, Image-Pro Plus (Media Cybernetics, Silver Springs, Md.) (Lejeune et al., 2008). Three randomly chosen fields were calculated for statistics.

[1] = Serum transaminases (SGPT, SGOT) and total bilirubin in normal and BDL rats; type: in vivo, rat; conditions: tap water containing melatonin (20 mg/L) for 1 week
Protocol: Male 344 Fischer rats (150-175 g) were purchased from Charles River (Wilmington, Mass.) and kept in a temperature-controlled environment (22° C.) with 12:12 hr light/dark cycles. Animals were fed ad libitum and had free access to food and drinking water. […] Before each surgical procedure, animals were anesthetized with sodium pentobarbital (50 mg/kg BW, IP). All animal experiments were performed in accordance with a protocol approved by the Scott and White and Texas A&M Health Science Center Institutional Animal Care and Use Committee and conform to the Guide for the Care and Use of Laboratory Animals published by the US National Institutes of Health (NIH Publication No. 85-23, revised 1996). In all animals, wet liver weight, body weight, wet liver weight to body weight ratio, and an index of liver cell growth including cholangiocytes were measured ([…] et al., 1988). In the selected groups of animals, the serum levels of the transaminases, serum glutamate pyruvate transaminases (SGPT) and serum glutamic oxaloacetic transaminase (SGOT) and total bilirubin were evaluated using a Dimension RxL Max Integrated Chemistry system (Dade Behring Inc., Deerfield Ill.) by the Chemistry Department, Scott & White. Melatonin serum levels were measured by commercially available ELISA kits according to the instructions provided by the vendor (Genway, San Diego, Calif.).

AANAT = AANAT morpholino in normal rats with or without CCl4 (liver sections, qPCR, immunoblots); type: in vivo, rat
Protocol: Methods: Normal rats were treated for 1 wk with AANAT morpholino (to reduce the biliary expression of AANAT) or scrambled morpholino (1 mg/kg BW/day) by a portal vein catheter before receiving a single dose of mineral oil or CCl4 (0.4 ml by gavage 1:1 in mineral oil/100 gm BW). Two days later, in liver sections the following was evaluated: (i) the hepatic expression of AANAT; and (ii) the percentage of TUNEL-positive cholangiocytes, and IBDM. In total liver tissue, the quantitative expression of AANAT, PCNA, Bax and Bcl-2 was studied by qPCR and immunoblots. In mouse cholangiocyte lines (NMC) stably overexpressing AANAT the expression of AANAT and CLOCK genes, melatonin secretion and biliary growth were studied after 48 hr incubation.

[2] = tumor sections, semiquantitative immunohistochemistry
[3] = normal rats vs. scrambled morpholino

SGOT ([1]; normal rats) [Units/L] | SGPT ([1]; normal rats) [Units/L] | Total bilirubin ([1]; normal rats) [mg/L] | Compound | Tumor size / xenograft tumor growth (Mz-ChA-1 cells; nude mice, melatonin 4 mg/kg BW IP three times a week vs. vehicle) | Necrosis (percentage of the whole field of section) (Mz-ChA-1 cells; tumor sections, H&E, 4 mg/kg BW IP three times a week) [%^ψ] | AANAT (Mz-ChA-1 cells; [2]) | ASMT (Mz-ChA-1 cells; [2]) | Cleaved caspase-3 (Mz-ChA-1 cells; [2]) | MT1 (Mz-ChA-1 cells; [2]) | MT2 (Mz-ChA-1 cells; [2]) | Melatonin (immunoreactivity) (Mz-ChA-1 cells; [2]) | PCNA (Mz-ChA-1 cells; [2]) | SGOT ([1]; BDL rats) [Units/L] | SGPT ([1]; BDL rats) [Units/L] | Total bilirubin ([1]; BDL rats) [mg/L] | AANAT expression in liver tissue (AANAT; [3]) | PCNA expression in liver tissue (AANAT; [3]) | IBDM (AANAT; normal rats, 1 mg/kg BW/day for 1 wk by portal vein catheter, vs. controls) | Biliary apoptosis in response to CCl4 (AANAT; rats, 1 mg/kg BW/day for 1 wk then single dose of CCl4)
143.0 ± 36.0 | 69.4 ± 45.9 | <0.1 | COc1ccc2[nH]cc(CCNC(C)=O)c2c1 [melatonin] | significant decrease; also recorded: significantly reduced | >75 | 1584.52 ± 127 | 46051.09 ± 13063.04 | 4490.66 ± 1053.52 | 1847.76 ± 419.9 | 1417.96 ± 425.71 | 41231.48 ± 7634.43 | 0.25 ± 0.09 (% of total % of total nucleus | 585.0 ± 162.4 | 210.8 ± 45.9 | 7.3 ± 1.9 | – | – | – | –
– | – | – | AANAT Vivo-Morpholino: Vivo-Morpholino sequence of AANAT 5′-GTTCCCCAGCTTTGGAAGTGGTCCC (SEQ ID NO:1), to reduce the biliary expression of AANAT (all phosphorodiamidate morpholino (PMO); Vivo-Morpholino delivery moiety attached, position not given here, further chemistry not fully specified) | – | – | – | – | – | – | – | – | – | – | – | – | decreased | increased | enhanced | absence
